In patent US11945794B2, “Nuclear transport modulators and uses thereof” (Karyopharm Therapeutics Inc., priority 2013, dated 2024):

Experiments:
Assay in all cases: MTT assay panel
Assay type in all cases: cell-based
AML-193 = AML-193 cells, 72 hours
Method: (§1) Compound 124 was further tested against a panel of selected solid and hematological cancer cell lines and selected normal cell lines in an MTT assay. Briefly, the various cell lines above were plated at different densities on day 1. […] Cell Titer AQueous One was added to each well, and the plates were read in a plate reader at OD 495.

ANBL-6 = conditions: Homo sapiens; ANBL-6 cells, 72 hours
Method: as §1

BL-2 = conditions: BL2; BL-2 cells, 72 hours
Method: as §1

Calu-6 = conditions: Homo sapiens; Calu-6 cells, 72 hours
Method: as §1

Daudi = conditions: Homo sapiens; Daudi cells, 72 hours
Method: as §1

Farage = Farage cells, 72 hours
Method: as §1

HCC-2935 = conditions: Homo sapiens, HCC2935; HCC-2935 cells, 72 hours
Method: as §1

HCC-827 = conditions: Homo sapiens, HCC827; HCC-827 cells, 72 hours
Method: as §1

HCT116 = conditions: Homo sapiens, HCT-116; HCT116 cells, 72 hours
Method: as §1

HS-Sultan = HS-Sultan cells, 72 hours
Method: as §1

HT1080 = conditions: Homo sapiens, HT-1080; HT1080 cells, 72 hours
Method: as §1

HeLa = conditions: Homo sapiens; HeLa cells, 72 hours
Method: as §1

HuCCT-1 = conditions: Homo sapiens; HuCCT-1 cells, 72 hours
Method: as §1

KG-1 = conditions: Homo sapiens; KG-1 cells, 72 hours
Method: as §1

LN18 = conditions: Homo sapiens, LN-18; LN18 cells, 72 hours
Method: as §1

LoVo = conditions: Homo sapiens; LoVo cells, 72 hours
Method: as §1

MDA-MB-231 = conditions: Homo sapiens; MDA-MB-231 cells, 72 hours
Method: as §1

MHCC97H = conditions: Homo sapiens; MHCC97H cells, 72 hours
Method: as §1

MINO = conditions: Homo sapiens; MINO cells, 72 hours
Method: as §1

MSTO-211H = conditions: Homo sapiens; MSTO-211H cells, 72 hours
Method: as §1

MV-4-11 = conditions: Homo sapiens, MV4-11; MV-4-11 cells, 72 hours
Method: as §1

NCI-H1650 = conditions: Homo sapiens; NCI-H1650 cells, 72 hours
Method: as §1

NCI-H187 = conditions: Homo sapiens; NCI-H187 cells, 72 hours
Method: as §1

NCI-H2030 = conditions: Homo sapiens; NCI-H2030 cells, 72 hours
Method: as §1

NCI-H2170 = conditions: Homo sapiens; NCI-H2170 cells, 72 hours
Method: as §1

NCI-H358 = conditions: Homo sapiens; NCI-H358 cells, 72 hours
Method: as §1

NCI-H69 = conditions: Homo sapiens; NCI-H69 cells, 72 hours
Method: as §1

NCI-H747 = conditions: Homo sapiens; NCI-H747 cells, 72 hours
Method: as §1

NCI-H820 = NCI-H820 cells, 72 hours
Method: as §1

PATU-8988T = conditions: Homo sapiens; PATU-8988T cells, 72 hours
Method: as §1

PL-45 = conditions: PL45; PL-45 cells, 72 hours
Method: as §1

RKO = conditions: Homo sapiens; RKO cells, 72 hours
Method: as §1

SW-1116 = conditions: Homo sapiens; SW-1116 cells, 72 hours
Method: as §1

SW-837 = conditions: Homo sapiens, SW837; SW-837 cells, 72 hours
Method: as §1

SW-948 = conditions: Homo sapiens, SW948; SW-948 cells, 72 hours
Method: as §1

TF-1 = conditions: Homo sapiens; TF-1 cells, 72 hours
Method: as §1

THP1 = conditions: Homo sapiens, THP-1; THP1 cells, 72 hours
Method: as §1

Toledo = conditions: Homo sapiens; Toledo cells, 72 hours
Method: as §1

U118MG = conditions: Homo sapiens, U-118-MG; U118MG cells, 72 hours
Method: as §1

Z-138 = conditions: Homo sapiens; Z-138 cells, 72 hours
Method: as §1

SMILES: NC(=O)/C(=C/n1cnc(-c2cc(C(F)(F)F)cc(C(F)(F)F)c2)n1)c1cncnc1 [Compound 124, (E)-3-(3-(3,5-bis(trifluoromethyl)phenyl)-1H-1,2,4-triazol-1-yl)-2-(pyrimidin-5-yl)acrylamide]
- IC50 (AML-193): 1930 nM
- IC50 (ANBL-6): 220 nM
- IC50 (BL-2): 30 nM
- IC50 (Calu-6): 1270 nM
- IC50 (Daudi): 8 nM
- IC50 (Farage): 460 nM
- IC50 (HCC-2935): 6700 nM
- IC50 (HCC-827): 460 nM
- IC50 (HCT116): 110 nM
- IC50 (HS-Sultan): 60 nM
- IC50 (HT1080): 310 nM
- IC50 (HeLa): 1050 nM
- IC50 (HuCCT-1): 50 nM
- IC50 (KG-1): 90 nM
- IC50 (LN18): 2060 nM
- IC50 (LoVo): 680 nM
- IC50 (MDA-MB-231): 120 nM
- IC50 (MHCC97H): > 10000 nM
- IC50 (MINO): 20 nM
- IC50 (MSTO-211H): 70 nM
- IC50 (MV-4-11): 100 nM
- IC50 (NCI-H1650): > 10000 nM
- IC50 (NCI-H187): 530 nM
- IC50 (NCI-H2030): 2050 nM
- IC50 (NCI-H2170): 2140 nM
- IC50 (NCI-H358): 420 nM
- IC50 (NCI-H69): 1640 nM
- IC50 (NCI-H747): 70 nM
- IC50 (NCI-H820): 3400 nM
- IC50 (PATU-8988T): 7170 nM
- IC50 (PL-45): 6940 nM
- IC50 (RKO): 450 nM
- IC50 (SW-1116): 410 nM
- IC50 (SW-837): 500 nM
- IC50 (SW-948): > 10000 nM
- IC50 (TF-1): 110 nM
- IC50 (THP1): 3380 nM
- IC50 (Toledo): 70 nM
- IC50 (U118MG): 370 nM
- IC50 (Z-138): 6 nM
